Results published in publication PMC2989597 (Current topics in medicinal chemistry, 2009).

Legend:
[1] = tested on: S. mansoni adult worms; details: 100 μM carboxy-PTIO (NO scavenger); cited from earlier work
[2] = tested on: S. mansoni TGR; details: single 10 μM exposure to 15 nM S. mansoni TGR, NADPH; cited from earlier work
[3] = tested on: Thyroid stimulating hormone receptor (TSHR); details: AID 926; cited from earlier work
[4] = tested on: N370S mutant GC; details: N370S mutant GC fibroblasts, 40 μM; cited from earlier work
[5] = tested on: Caco-2; experiment: Caco-2 permeability; format: in vitro ADME
[6] = tested on: β-N-acetylflucosaminidase; details: cited from earlier work
[7] = biological target: glucocerebrosidase (GC); details: native GC; cited from earlier work
[8] = tested on: α-galactosidase; details: cited from earlier work
[9] = tested on: Cyp; experiment: Cyp inhibition; format: in vitro ADME
[10] = Microsomal stability; format: in vitro ADME; details: rat
[11] = tested on: α-glucosidase; details: cited from earlier work
[12] = Aqueous solubility; format: physicochemical
[13] = Plasma protein binding; format: in vitro ADME; details: low free fraction
[14] = biological target: AmpC β-lactamase; details: cited from earlier work
[15] = tested on: TSHR; details: cited from earlier work
[16] = tested on: LHR; details: cited from earlier work
[17] = tested on: TSHR; details: sera from 4 Graves' disease patients, cAMP accumulation; cited from earlier work
[18] = tested on: thyroperoxidase mRNA expression; details: human thyrocytes, 10 μM and 30 μM; cited from earlier work

In the case of `N#Cc1c(-c2ccccc2)no[n+]1[O-]` [furoxan, 3-cyano-4-phenyl-1,2,5-oxadiazole 2-oxide], the “worm killing potential in the presence of carboxy-PTIO” value [1] is listed as “largely mitigated” and the NO release [2] is listed as “appreciable amount of NO”.

In the case of `COc1ccc(C2Nc3ccccc3C(=O)N2Cc2ccccc2)cc1COc1ccc(NC(C)=O)cc1` (centres unmarked) [NCGC00161876, N-(4-(5-(3-benzyl-4-oxo-1,2,3,4-tetrahydroquinazolin-2-yl)-2-methoxybenzyloxy)phenyl)acetamide], the “TSHR agonism in qHTS” value [3] is listed as “agonists”.

For `Cc1cc(N2CCOCC2)nc2ccc(NC(=O)C3CCCCC3)cc12` [NCGC00092410, N-(4-methyl-2-morpholinoquinolin-6-yl)cyclohexanecarboxamide], the “co-localization of mutant GC to the lysosome” value [4] is given as “co-localization of this mutant form of GC to the lysosome”, the Caco-2 permeability [5] is given as “acceptable” and the “inhibitory capacity for β-N-acetylflucosaminidase” value [6] is given as “no inhibitory capacity”. For the same compound, the Ki [7] was 21 nM, the “inhibitory capacity for α-galactosidase” value [8] was “no inhibitory capacity” and the Cyp inhibition [9] was “no relevant Cyp inhibition”. For the same compound, the microsomal stability [10] was “acceptable”, the “inhibitory capacity for α-glucosidase” value [11] was “no inhibitory capacity” and the aqueous solubility [12] was “acceptable”. The plasma protein binding [13] was “high level”.

In the case of `O=C(O)c1ccc2c(c1)C(=O)N([C@H](Cc1cccc3ccccc13)C(=O)O)C2=O` [NCGC00161790, (R)-2-(1-carboxy-2-(naphthalen-1-yl)ethyl)-1,3-dioxoisoindoline-5-carboxylic acid], the Ki [14] is given as 5 µM.

In the case of `COc1cccc(-c2nc(SC)nc3sc(C(=O)NC(C)(C)C)c(N)c23)c1` [Org 41841, reference compound], the “response at TSHR” value ([15]; lower potency relative to LHR) is listed as “agonistic response” and the LHR agonism [16] is listed as “highly potent”.

In the case of `CC(C)[C@H](NC(=O)OC(C)(C)C)c1nnc(S(=O)(=O)Cc2c(F)cccc2Cl)o1` [NCGC00067197, (S)-tert-butyl 1-(5-(2-chloro-6-fluorobenzylsulfonyl)-1,3,4-oxadiazol-2-yl)-2-methylpropylcarbamate], the IC50 [14] is listed as 16 nM.

For `COC/C=C/c1ccc(-c2nc(SC)nc3sc(C(=O)NC(C)(C)C)c(N)c23)cc1` [NCGC00166332], the TSHR antagonism [15] is given as “antagonist”, the “blocking the activity of thyroid-stimulating antibodies” value [17] is given as “capable of blocking” and the “blocking thyroperoxidase mRNA expression” value [18] is given as “capable of blocking”.
